These are literature values, as cited in patent publication US20050267140A1, “Method for treating abnormal cell growth” (priority 2004, published 2005).

For the data set, the system named is previously untreated patients with metastatic colorectal cancer.
Where [1] appears, read: capecitabine treatment arms, 2500 mg/m^2/day for 14 days every 3 weeks.

Like-named read-outs stand apart in the source and are kept apart here.

For `CCCCCOC(=O)Nc1nc(=O)n([C@@H]2O[C@H](C)[C@@H](O)[C@H]2O)cc1F` [capecitabine, 5′-deoxy-5-fluoro-N-[(pentyloxy)-carbonyl]-cytidine], the Median survival (European trial (N=602), p=0.30) was 13.3 months and the Median survival (US trial (N=605), p=0.24) was 12.5 months. Besides, the “Grade 3-4 diarrhea” value under setting [1] is 14%. Moreover, the “Grade 3-4 hand-foot syndrome” value under setting [1] was 17%. For the same compound, the Overall response rate is 21% (first of the 2 trials as listed ('respectively'), p=0.014) and 21% (second of the 2 trials as listed ('respectively'), p=0.03).
